From PubChem BioAssay (NCI)
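Compound exposure: 48 hours, 5 concentrations, 96-well plates. Abbreviation: GI50, concentration required for 50% inhibition of growth. Definition used: TGI = concentration required for complete inhibition of growth.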

Legend:
Test in all cases: DTP human tumour cell line panel, 48 h
OVCAR-4 ovarian = system: OVCAR-4 ovarian
CCRF-CEM leukemia = system: CCRF-CEM leukemia
786-0 renal = system: 786-0 renal
HT29 colon = system: HT29 colon
NCI-H460 lung = system: NCI-H460 lung
SW-620 colon = system: SW-620 colon
IGROV1 ovarian = system: IGROV1 ovarian
SNB-19 CNS = system: SNB-19 CNS
SF-295 CNS = system: SF-295 CNS
MDA-MB-435 = system: MDA-MB-435

Row | SMILES | TGI (OVCAR-4 ovarian) | TGI (CCRF-CEM leukemia) | TGI (786-0 renal) | TGI (HT29 colon) | TGI (NCI-H460 lung) | TGI (SW-620 colon) | TGI (IGROV1 ovarian) | TGI (SNB-19 CNS) | TGI (SF-295 CNS) | GI50 (CCRF-CEM leukemia) | GI50 (786-0 renal) | GI50 (NCI-H460 lung) | GI50 (SW-620 colon) | GI50 (IGROV1 ovarian) | GI50 (SNB-19 CNS) | GI50 (SF-295 CNS) | GI50 (MDA-MB-435) | TGI (MDA-MB-435) | GI50 (OVCAR-4 ovarian) | GI50 (HT29 colon)
1 | O=S(=O)(c1ccccc1)C(CN1CCCCC1)S(=O)(=O)c1ccccc1 | > 100 µM | > 100 µM | > 100 µM | > 100 µM | > 100 µM | > 100 µM | > 100 µM | > 100 µM | > 100 µM |  |  |  |  |  |  |  |  |  |  | 
2 | COc1ccc(C2=C(Cl)c3cc(OC)c(OC)cc3C2Cl)cc1OC (configuration not stated) | 47.5 µM | 28.9 µM | 41.5 µM | 29.8 µM | 34.8 µM | 34.5 µM | 44.2 µM | 32.1 µM | 33.8 µM |  |  |  |  |  |  |  |  |  |  | 
3 | CN(C)c1ccc(C=C2C(=O)OC(C)(C)OC2=O)cc1Br | > 100 µM | > 100 µM | > 100 µM | > 100 µM | > 100 µM | > 100 µM |  | > 100 µM | > 100 µM |  |  |  |  |  |  |  |  |  |  | 
4 | Cc1cc(N(CCC#N)CCC#N)ccc1/C=C/C(=O)Nc1cccc(Cl)c1 | > 100 µM | > 100 µM | > 100 µM | > 100 µM | > 100 µM | > 100 µM | > 100 µM | > 100 µM | > 100 µM |  |  |  |  |  |  |  |  |  |  | 
5 | COc1ccc(N=c2ssc3c(=S)ssc23)cc1 | > 100 µM | 28.2 µM | > 100 µM |  |  | 35.8 µM | 26.3 µM |  | > 100 µM |  |  |  |  |  |  |  |  |  |  | 
6 | CSCC1CC(c2ccc(Cl)cc2)=NO1 (configuration not stated) | > 100 µM | > 100 µM | > 100 µM | > 100 µM | > 100 µM | > 100 µM | > 100 µM |  | > 100 µM |  |  |  |  |  |  |  |  |  |  | 
7 | CC(=O)C1=CSC2[C@H](NC(=O)Cc3ccccc3)C(=O)N2C1C(=O)OC(c1ccccc1)c1ccccc1 (some centres not stated) | > 100 µM | 68.2 µM | > 100 µM | > 100 µM |  | > 100 µM | > 100 µM | > 100 µM | > 100 µM |  |  |  |  |  |  |  |  |  |  | 
8 | CCOC1(COP(=O)(OCc2ccccc2)OCc2ccccc2)COC(COP(=O)(OCc2ccccc2)OCc2ccccc2)(OCC)CO1 (configuration not stated) | > 100 µM | > 100 µM | > 100 µM | > 100 µM | > 100 µM | > 100 µM | > 100 µM | > 100 µM | > 100 µM |  |  |  |  |  |  |  |  |  |  | 
9 | O=C1OC(CCCl)(c2ccccc2)CC1CN1CCOCC1 (configuration not stated) | > 100 µM | 41.6 µM | 24.4 µM | 46 µM | > 100 µM | 39.2 µM | 50.1 µM |  | > 100 µM |  |  |  |  |  |  |  |  |  |  | 
10 | c1ccc2c(c1)c(NCCCCN1CCCCC1)cc1c3ccccc3c(NCCCCN3CCCCC3)cc21 |  | > 100 µM | 29.1 µM |  | 53.7 µM | > 100 µM | > 100 µM | 50.9 µM | 65.4 µM | 13.4 µM | 12000 nM | 18300 nM | 10600 nM | 36900 nM | 22500 nM | 22800 nM | 3420 nM | 12.3 µM |  | 
11 | CCN1CCC(CCOC)(CN2c3ccccc3Sc3ccc(Cl)cc32)C1 (configuration not stated) | 8.66 µM | > 100 µM | 3.39 µM |  | 3.58 µM | 3.24 µM | 3.99 µM | 7.31 µM | 3.39 µM | 3.57 µM | 1810 nM | 1900 nM | 1700 nM | 1970 nM | 2650 nM | 1730 nM | 1740 nM | 3.35 µM | 2720 nM | 
12 | COc1ccc2cc(-c3ccoc(=O)c3-c3cc(OC)c(OC)c(OC)c3)ccc2c1 | > 100 µM | > 100 µM | > 100 µM | 22.5 µM | > 32 µM | > 100 µM | > 20.6 µM | > 100 µM |  | 0.0842 µM | 201 nM | 52.6 nM | 45.5 nM | 33.9 nM | 125 nM | 45 nM |  |  | 1160 nM | 38.3 nM
13 | CCOC(=O)C1=C(O)C(=O)c2ccsc2C1=O | > 100 µM | > 100 µM | > 100 µM | > 100 µM | > 100 µM | > 100 µM | > 100 µM | > 100 µM | > 100 µM |  |  |  |  |  |  |  |  |  |  | 
14 | COc1ccc(OC)c(NC(=O)CCC/C(CC(=O)c2ccc(O)c(OC)c2)=N\NC(=O)C[N+](C)(C)C)c1 | > 100 µM | > 100 µM | > 100 µM | > 100 µM | > 100 µM | > 100 µM | > 100 µM | > 100 µM | > 100 µM |  |  |  |  |  |  |  |  |  |  | 
15 | CN(C)c1nc(=Nc2ccc3ccccc3c2)ss1 | > 100 µM | 73.5 µM | > 100 µM |  | > 100 µM | > 100 µM | > 100 µM | > 100 µM |  |  |  |  |  |  |  |  |  |  |  | 
16 | CCOC(=O)C(=O)Nc1c(CC)cccc1C(C)C | > 100 µM |  | > 100 µM | > 100 µM | > 100 µM | > 100 µM | > 100 µM | > 100 µM | > 100 µM |  |  |  |  |  |  |  |  |  |  | 
17 | Cc1cc2c(C)n(Cc3ccc(Cl)cc3Cl)nc2c(C#N)c1C | > 100 µM | > 100 µM | 37.4 µM | > 100 µM | > 100 µM | > 100 µM | > 100 µM | 45.7 µM | 60.9 µM |  |  |  |  |  |  |  |  |  |  | 
18 | CNC(=O)OCc1c(COC(=O)NC)c(C)n(-c2ccc(Br)cc2)c1C |  | 48.2 µM | 27.8 µM | 22.4 µM | 24.1 µM | 27.3 µM | 19.1 µM | 44.3 µM | 31.9 µM |  |  |  |  |  |  |  |  | 34 µM |  | 
19 | COc1cc(C(=O)C/C(CCC(=O)Nc2ccccc2[N+](=O)[O-])=N\NC(=O)CC#N)ccc1O | > 100 µM | > 100 µM | > 100 µM | > 100 µM | > 100 µM | > 100 µM | > 100 µM | > 100 µM | > 100 µM |  |  |  |  |  |  |  |  |  |  | 
20 | Cn1c(/C=C(\O)c2ccc(Cl)cc2)nc2ccccc21 | > 100 µM | > 100 µM | > 100 µM | > 100 µM | > 100 µM | > 100 µM | > 100 µM | > 100 µM | > 100 µM |  |  |  |  |  |  |  |  |  |  | 
21 | CCOc1ccc2nc(NC(=O)c3c/c(=N\NC(=O)C[N+](C)(C)C)c4ccc(O)cc4o3)sc2c1 | 5.96 µM | 5.96 µM | 10.9 µM | 13 µM | 13.4 µM | 5.28 µM | 8.64 µM | 17.8 µM | 11.1 µM |  |  |  |  |  |  |  |  |  |  | 
22 | CCOC(=O)c1nc2ccc([N+](=O)[O-])cc2c2c1CCO2 | > 100 µM | > 100 µM | > 100 µM | > 100 µM | > 100 µM | > 100 µM | > 100 µM | > 100 µM | > 100 µM |  |  |  |  |  |  |  |  |  |  | 
